Measured values published in US7674807B2, “Heterocycle-substituted n-phenyl-phthalamide derivatives, related compounds and their use as insecticides” (Bayer CropScience AG, priority 2004, dated 2010).

Experiments:
[1] = tested on: larva of Cnaphalocrocis medinalis Guenee; assay: Test against larva of Cnaphalocrocis medinalis Guenee (sprayed paddy rice foliage); format: in vivo; conditions: 20 ppm concentration of the active component; second instar larvae; counted after 7 days; 25° C.
Method: Paddy rice (variety: Tamanishiki) planted in a pot was treated by spraying 50 ml per pot of the diluted aqueous solution of the prescribed concentration of the active compound prepared in the same manner as in the above-mentioned Biological Test Example 1. After the treated rice plant was dried in the air, their foliage part was cut in 4-5 cm length, which were put in a dish with 9 cm diameter with a sheet of filter paper and 2 ml of water. Five larvae of Cnaphalocrocis medinalis Guenee at the second instar were put in the dish that was placed in a room at the constant temperature of 25° C. After 2 and 4 days, each rest (each ⅓ amount) of foliage parts of rice plant were cut in the same manner and added to the dish. After 7 days the number of dead larvae was counted and the rate of death was calculated. In this test the results of 2 dishes at 1 section were averaged.

[2] = tested on: larva of Spodoptera litura; assay: Test against larva of Spodoptera litura (leaf dip, sweet potato leaves); format: in vivo; conditions: 20 ppm concentration of the active component; third instar larvae; counted after 7 days; 25° C.
Method: Preparation of Test Solution:
In order to make an appropriate formulation of an active compound, 1 part by weight of the active compound was mixed with the above-mentioned amount of solvent containing the above-mentioned amount of emulsifier and the mixture was diluted with water to a prescribed concentration.
Leaves of sweet potato were soaked in the test solution diluted to a prescribed concentration with water, dried in the air and put in a dish of 9 cm diameter.
10 larvae of Spodoptera litura at the third instar were placed on the leaves and kept in a room at the constant temperature of 25° C. After 2 and 4 days further leaves of sweet potato were added and after 7 days the number of dead larvae was counted and the rate of death was calculated.
In this test the results of 2 dishes at 1 section were averaged.

Row | SMILES | controlling effect, rate of death [1] [%] | controlling effect, rate of death [2] [%]
1 | CSCC(C)NC(=O)c1c(I)cccc1C(=O)Nc1ccc(-c2cc(OC(F)F)n(C(F)F)n2)cc1C (stereo not drawn) [compound 518] | 100 | 100
2 | Cc1cc(-c2cc(OC(F)F)n(C(F)F)n2)ccc1NC(=O)c1cccc(I)c1C(=O)NC(C)CS(C)(=O)=O (stereo not drawn) [compound 520] | 100 | 100
3 | Cc1cc(Cn2nc(C(F)(F)F)cc2C(F)(F)F)ccc1NC(=O)c1cccc(I)c1C(=O)N[C@@H](C)CSC(C)C [compound 539] | 100 | 100
4 | CSC[C@H](C)NC(=O)c1c(C(=O)Nc2ccc(Cn3nc(C(F)(F)F)cc3C(F)(F)F)cc2C)cccc1[N+](=O)[O-] [compound 543] | 100 | 100
5 | Cc1cc(Cn2nc(C(F)(F)F)cc2C(F)(F)F)ccc1NC(=O)c1cccc([N+](=O)[O-])c1C(=O)N[C@@H](C)C[S+](C)[O-] (stereo partly drawn) [compound 544] | 100 | 100
6 | Cc1cc(Cn2nc(C(F)(F)F)cc2C(F)(F)F)ccc1NC(=O)c1cccc([N+](=O)[O-])c1C(=O)N[C@@H](C)CS(C)(=O)=O [compound 545] | 100 | 100
7 | CSC[C@H](C)NC(=O)c1c(C(=O)Nc2ccc(Cn3nc(C(F)(F)F)nc3C(F)(F)F)cc2C)cccc1[N+](=O)[O-] [compound 546] | 100 | 100
8 | Cc1cc(Cn2nc(C(F)(F)F)nc2C(F)(F)F)ccc1NC(=O)c1cccc([N+](=O)[O-])c1C(=O)N[C@@H](C)C[S+](C)[O-] (stereo partly drawn) [compound 547] | 100 | 100
9 | Cc1cc(Cn2nc(C(F)(F)F)nc2C(F)(F)F)ccc1NC(=O)c1cccc([N+](=O)[O-])c1C(=O)N[C@@H](C)CS(C)(=O)=O [compound 548] | 100 | 100
10 | CSC[C@H](C)NC(=O)c1c(F)cccc1C(=O)Nc1ccc(Cn2nc(C(F)(F)F)cc2C(F)(F)F)cc1C [compound 549, N^1-{4-[3,5-bis(trifluoromethyl)-1H-pyrazol-1-ylmethyl]-2-methylphenyl}-3-fluoro-N^2-[1-(S)-1-methyl-2-methylsulfanyl-ethyl]-phthalamide] | 100 | 100
11 | CSC[C@H](C)NC(=O)c1c(C(=O)Nc2ccc(Cn3nc(C(F)(F)F)cc3C(F)(F)F)cc2C)cccc1S(C)(=O)=O [compound 552] | 100 | 100
12 | CSC[C@H](C)NC(=O)c1c(I)cccc1C(=O)Nc1ccc(Cn2nc(C(F)(F)F)c(I)c2C(F)(F)F)cc1C [compound 554] | 100 | 100
13 | CSC[C@H](C)NC(=O)c1c(Cl)cccc1C(=O)Nc1ccc(C(C)n2nc(C(F)(F)F)cc2C(F)(F)F)cc1C (stereo partly drawn) [compound 559] | 100 | 100
14 | Cc1cc(C(C)n2nc(C(F)(F)F)cc2C(F)(F)F)ccc1NC(=O)c1cccc(Cl)c1C(=O)N[C@@H](C)CS(C)(=O)=O (stereo partly drawn) [compound 561] | 100 | 100
15 | CSC[C@H](C)NC(=O)c1c(I)cccc1C(=O)Nc1ccc(C(C)n2nc(C(F)(F)F)cc2C(F)(F)F)cc1C (stereo partly drawn) [compound 562] | 100 | 100
16 | Cc1cc(C(C)n2nc(C(F)(F)F)cc2C(F)(F)F)ccc1NC(=O)c1cccc(I)c1C(=O)N[C@@H](C)C[S+](C)[O-] (stereo partly drawn) [compound 563] | 100 | 100
17 | Cc1cc(C(C)n2nc(C(F)(F)F)cc2C(F)(F)F)ccc1NC(=O)c1cccc(I)c1C(=O)N[C@@H](C)CS(C)(=O)=O (stereo partly drawn) [compound 564] | 100 | 100
18 | CSCC(C)(C)NC(=O)c1c(I)cccc1C(=O)Nc1ccc(C(C)n2nc(C(F)(F)F)cc2C(F)(F)F)cc1C (stereo not drawn) [compound 565] | 100 | 100
19 | Cc1cc(C(C)n2nc(C(F)(F)F)cc2C(F)(F)F)ccc1NC(=O)c1cccc(I)c1C(=O)NC(C)(C)C[S+](C)[O-] (stereo not drawn) [compound 566] | 100 | 100
20 | Cc1cc(C(C)n2nc(C(F)(F)F)cc2C(F)(F)F)ccc1NC(=O)c1cccc(I)c1C(=O)NC(C)(C)CS(C)(=O)=O (stereo not drawn) [compound 567] | 100 | 100

Row | SMILES | controlling effect, rate of death [1] [%] | controlling effect, rate of death [2] [%]
21 | CSC[C@H](C)NC(=O)c1c(Cl)cccc1C(=O)Nc1ccc(C(C)n2nc(C(F)(F)F)nc2C(F)(F)F)cc1C (stereo partly drawn) [compound 568] | 100 | 100
22 | CSC[C@H](C)NC(=O)c1c(I)cccc1C(=O)Nc1ccc(C(C)n2nc(C(F)(F)F)nc2C(F)(F)F)cc1C (stereo partly drawn) [compound 571] | 100 | 100
23 | Cc1cc(C(C)n2nc(C(F)(F)F)nc2C(F)(F)F)ccc1NC(=O)c1cccc(I)c1C(=O)N[C@@H](C)CS(C)(=O)=O (stereo partly drawn) [compound 573] | 100 | 100
24 | CSC[C@H](C)NC(=O)c1c(Cl)cccc1C(=O)Nc1ccc(C(C)n2nc(C(F)(F)F)nc2C(F)(F)C(F)(F)F)cc1C (stereo partly drawn) [compound 574] | 100 | 100
25 | CSC[C@H](C)NC(=O)c1c(Cl)cccc1C(=O)Nc1ccc(C(C)n2nc(C(F)(F)C(F)(F)F)nc2C(F)(F)F)cc1C (stereo partly drawn) [compound 578] | 100 | 100
26 | Cc1cc(C(C)n2nc(C(F)(F)C(F)(F)F)nc2C(F)(F)F)ccc1NC(=O)c1cccc(Cl)c1C(=O)N[C@@H](C)CS(C)(=O)=O (stereo partly drawn) [compound 580] | 100 | 100
27 | CSC[C@H](C)NC(=O)c1c(Cl)cccc1C(=O)Nc1ccc(Cn2nc(C(F)(F)C(F)(F)F)cc2C(F)(F)C(F)(F)F)cc1C [compound 626] | 100 | 100
28 | CSC[C@H](C)NC(=O)c1c(Cl)cccc1C(=O)Nc1ccc(Cn2cc(C(F)(F)C(F)(F)F)c(C(F)(F)F)n2)cc1C [compound 637] | 100 | 100
29 | Cc1cc(Cn2cc(C(F)(F)C(F)(F)F)c(C(F)(F)F)n2)ccc1NC(=O)c1cccc(Cl)c1C(=O)N[C@@H](C)C[S+](C)[O-] (stereo partly drawn) [compound 638] | 100 | 100
30 | Cc1cc(Cn2cc(C(F)(F)C(F)(F)F)c(C(F)(F)F)n2)ccc1NC(=O)c1cccc(Cl)c1C(=O)N[C@@H](C)CS(C)(=O)=O [compound 639] | 100 | 100
31 | CSC[C@H](C)NC(=O)c1c(I)cccc1C(=O)Nc1ccc(Cn2cc(C(F)(F)C(F)(F)F)c(C(F)(F)F)n2)cc1C [compound 640] | 100 | 100
32 | Cc1cc(Cn2cc(C(F)(F)C(F)(F)F)c(C(F)(F)F)n2)ccc1NC(=O)c1cccc(I)c1C(=O)N[C@@H](C)C[S+](C)[O-] (stereo partly drawn) [compound 641] | 100 | 100
33 | Cc1cc(Cn2cc(C(F)(F)C(F)(F)F)c(C(F)(F)F)n2)ccc1NC(=O)c1cccc(I)c1C(=O)N[C@@H](C)CS(C)(=O)=O [compound 642] | 100 | 100
34 | CSC[C@H](C)NC(=O)c1c(Cl)cccc1C(=O)Nc1ccc(Cn2cc(C(F)(F)C(F)(F)C(F)(F)F)c(C(F)(F)F)n2)cc1C [compound 643] | 100 | 100
35 | CSC[C@H](C)NC(=O)c1c(I)cccc1C(=O)Nc1ccc(Cn2cc(C(F)(F)C(F)(F)C(F)(F)F)c(C(F)(F)F)n2)cc1C [compound 644] | 100 | 100
36 | CSC[C@H](C)NC(=O)c1c(Cl)cccc1C(=O)Nc1ccc(Cn2cc(C(F)(F)C(F)(F)C(F)(F)C(F)(F)F)c(C(F)(F)F)n2)cc1C [compound 645] | 100 | 100
37 | Cc1cc(Cn2cc(C(F)(F)C(F)(F)C(F)(F)C(F)(F)F)c(C(F)(F)F)n2)ccc1NC(=O)c1cccc(Cl)c1C(=O)N[C@@H](C)C[S+](C)[O-] (stereo partly drawn) [compound 646] | 100 | 100
38 | Cc1cc(Cn2cc(C(F)(F)C(F)(F)C(F)(F)C(F)(F)F)c(C(F)(F)F)n2)ccc1NC(=O)c1cccc(Cl)c1C(=O)N[C@@H](C)CS(C)(=O)=O [compound 647] | 100 | 100
39 | CSC[C@H](C)NC(=O)c1c(I)cccc1C(=O)Nc1ccc(Cn2cc(C(F)(F)C(F)(F)C(F)(F)C(F)(F)F)c(C(F)(F)F)n2)cc1C [compound 648] | 100 | 100
